Experimental data as given in patent publication US7659404B2, “Broad spectrum 2-(substituted-amino)-benzothiazole sulfonamide HIV protease inhibitors” (Tibotec Pharmaceuticals Ltd., priority 2001, dated 2010).

Key:
wild type virus (IIIB) = test: HIV-AVE-MT4-MTT cellular assay, wild type virus (IIIB); type: cell-based; details: MT4 cells, MTT; for EC50: Human immunodeficiency virus 1, IIIB, MT4, wild type virus (IIIB), read-out: HIV-AVE-MT4-MTT-IIIB-2-002 pEC50 (converted); for HIV-AVE-MT4-MTT-IIIB-2-002 pEC50: wild type virus (IIIB)
Protocol: (§1) HIV- or mock-infected MT4 cells were incubated for five days in the presence of various concentrations of the inhibitor. At the end of the incubation period, all HIV-infected cells have been killed by the replicating virus in the control cultures in the absence of any inhibitor. Cell viability is measured by measuring the concentration of MTT, a yellow, water soluble tetrazolium dye that is converted to a purple, water insoluble formazan in the mitochondria of living cells only. Upon solubilization of the resulting formazan crystals with isopropanol, the absorbance of the solution is monitored at 540 nm. The values correlate directly to the number of living cells remaining in the culture at the completion of the five day incubation. The inhibitory activity of the compound was monitored on the virus-infected cells and was expressed as EC50 and EC90. These values represent the amount of the compound required to protect 50% and 90%, respectively, of the cells from the cytopathogenic effect of the virus. The toxicity of the compound was measured on the mock-infected cells and was expressed as CC50, which represents the concentration of compound required to inhibit the growth of the cells by 50%. The selectivity index (SI) (ratio CC50/EC50) is an indication of the selectivity of the anti-HIV activity of the inhibitor.

virus strain F (R13025) = test: microbe, parasite or virus in culture; type: cell-based, HIV; details: for EC50: Human immunodeficiency virus 1, MT4, read-out: HIV-AVE-MT4-MTT-R13025-2-002 pEC50, virus strain F (R13025), MT4 cells, MTT (converted); for HIV-AVE-MT4-MTT-R13025-2-002 pEC50: virus strain F (R13025), MT4 cells
Protocol: as §1, with “At the end of the incubation period, all HIV-infected cells have been killed by the replicating virus in the control cultures in the absence of any inhibitor.” left out
(§2) Because of the increasing emergence of drug resistant HIV strains, the present compounds were tested for their potency against clinically isolated HIV strains harboring several mutations.
(§3) As a measure of the broad spectrum activity of the present compounds, the fold resistance (FR) defined as FR=EC50(mutant strain)/EC50(HIV-1 strain LAI).

virus strain S (R13080) = test: microbe, parasite or virus in culture; type: cell-based, HIV; details: for EC50: Human immunodeficiency virus 1, MT4, read-out: HIV-AVE-MT4-MTT-R13080-2-002 pEC50, virus strain S (R13080), MT4 cells, MTT (converted); for HIV-AVE-MT4-MTT-R13080-2-002 pEC50: virus strain S (R13080), MT4 cells
Protocol: as §1, with “At the end of the incubation period, all HIV-infected cells have been killed by the replicating virus in the control cultures in the absence of any inhibitor.” left out
as §2, §3

Structure (SMILES)	EC50 (wild type virus (IIIB)) [nM]	EC50 (virus strain F (R13025)) [nM]	EC50 (virus strain S (R13080)) [nM]	HIV-AVE-MT4-MTT-IIIB-2-002 pEC50 (wild type virus (IIIB))	HIV-AVE-MT4-MTT-R13025-2-002 pEC50 (virus strain F (R13025))	HIV-AVE-MT4-MTT-R13080-2-002 pEC50 (virus strain S (R13080))
COc1cc(C(=O)Nc2nc3ccc(S(=O)(=O)N(CC(C)C)C[C@@H](O)[C@H](Cc4ccccc4)NC(=O)COc4c(C)cccc4C)cc3s2)cc(OC)c1O [Compound 116]	31.6	32.4	43.7			
Cc1cccc(C)c1OCC(=O)Nc1nc2ccc(S(=O)(=O)N(CC(C)C)C[C@@H](O)[C@H](Cc3ccccc3)NC(=O)COc3c(C)cccc3C)cc2s1 [Compound 145]	12.6	39.8	145			
CC(C)CN(C[C@@H](O)[C@H](Cc1ccccc1)NC(=O)OCc1cncs1)S(=O)(=O)c1ccc2nc(N(C)C(=O)CN(C)C)sc2c1 [Compound 176]				8.39	7.2	6.65
CC(C)CN(C[C@@H](O)[C@H](Cc1ccccc1)NC(=O)OCc1cncs1)S(=O)(=O)c1ccc2nc(NC(=O)C3CCC(=O)N3)sc2c1 (stereo partly drawn) [Compound 161]	9.12	17.4	33.9			
CC(C)CN(C[C@@H](O)[C@H](Cc1ccccc1)NC(=O)OC(C)(C)C)S(=O)(=O)c1ccc2nc(NCCN3CCCC3)sc2c1 [Compound 126]	49	3160	10000			
CC(C)CN(C[C@@H](O)[C@H](Cc1ccccc1)NC(=O)OCc1cncs1)S(=O)(=O)c1ccc2nc(N(C)C(=O)c3ccccn3)sc2c1 [Compound 154]	5.5	38	372			
CCOC(=O)Nc1nc2ccc(S(=O)(=O)N(CC(C)C)C[C@@H](O)[C@H](Cc3ccccc3)NC(=O)OCc3cncs3)cc2s1 [Compound 170]	7.59	17.4	162			
CC(C)CN(C[C@@H](O)[C@H](Cc1ccccc1)NC(=O)C(NC(=O)CNCc1cccc(F)c1)C(C)(C)C)S(=O)(=O)c1ccc2nc(NCCCN(C)C)sc2c1 (stereo partly drawn) [Compound 188]	200	93.3	132			
CC(C)CN(C[C@@H](O)[C@H](Cc1ccccc1)NC(=O)O[C@H]1CO[C@H]2OCC[C@H]21)S(=O)(=O)c1ccc2nc(N(CCN3CCCC3)C(=O)OC3CO[C@@H]4OCO[C@H]34)sc2c1 (stereo partly drawn) [Compound 178]	17.4	10.7	33.9			
CC(C)CN(C[C@@H](O)[C@H](Cc1ccccc1)NC(=O)OCc1cncs1)S(=O)(=O)c1ccc2nc(N(C)C(=O)c3ccc[nH]3)sc2c1 [Compound 180]	155	891	10000			
CC(C)CN(C[C@@H](O)[C@H](Cc1ccccc1)NC(=O)O[C@H]1CCOC1)S(=O)(=O)c1ccc2nc(NC(=O)CN3CCCC3)sc2c1 [Compound 100]	1.32	43.7	70.8			
CC(C)CN(C[C@@H](O)[C@H](Cc1ccccc1)NC(=O)OC1CCSC1)S(=O)(=O)c1ccc2nc(NCCN(C)C)sc2c1 (stereo partly drawn) [Compound 146]	9.55	302	1000			
CC(C)CN(C[C@@H](O)[C@H](Cc1ccccc1)NC(=O)O[C@H]1CO[C@H]2OCC[C@H]21)S(=O)(=O)c1ccc2nc(N(C)CCCN(C)C)sc2c1 [Compound 103]	20	174	525			
CC(C)CN(C[C@@H](O)[C@H](Cc1ccccc1)NC(=O)OCc1cncs1)S(=O)(=O)c1ccc2nc(NC(=O)c3ccccn3)sc2c1 [Compound 165]	44.7	123	631			
CC(C)CN(C[C@@H](O)[C@H](Cc1ccccc1)NC(=O)OCc1cncs1)S(=O)(=O)c1ccc2nc(N(C)C(=O)CN3CCOCC3)sc2c1 [Compound 174]				8.04	6.88	6.18
Cc1cccc(C)c1OCC(=O)N[C@@H](Cc1ccccc1)[C@H](O)CN(CC(C)C)S(=O)(=O)c1ccc2nc(NC(=O)C3CCCN(C)C3)sc2c1 (stereo partly drawn) [Compound 128]	5.89	19.1	56.2			
CC(C)CN(C[C@@H](O)[C@H](Cc1ccccc1)NC(=O)OCc1cncs1)S(=O)(=O)c1ccc2nc(NC(=O)CN3CCOCC3)sc2c1 [Compound 158]	3.31	7.94	30.2			
CC(C)CN(C[C@@H](O)[C@H](Cc1ccccc1)NC(=O)OCc1cncs1)S(=O)(=O)c1ccc2nc(N(C)C(=O)c3cc[nH]c3)sc2c1 [Compound 181]	33.1	525	1820			
CC(C)CN(C[C@@H](O)[C@H](Cc1ccccc1)NC(=O)OCc1cncs1)S(=O)(=O)c1ccc2nc(NC(=O)c3ccncc3)sc2c1 [Compound 168]	24.5	31.6	135			
CC(C)CN(C[C@@H](O)[C@H](Cc1ccccc1)NC(=O)OCc1cncs1)S(=O)(=O)c1ccc2nc(NC(=O)OC(C)C)sc2c1 [Compound 167]	4.9	30.9	141			
CC(C)CN(C[C@@H](O)[C@H](Cc1ccccc1)NC(=O)OCc1cncs1)S(=O)(=O)c1ccc2nc(NC(=O)CN3CCN(C)CC3)sc2c1 [Compound 156]	7.24		27.5		8.27	
Cc1cccc(C)c1OCC(=O)N[C@@H](Cc1ccccc1)[C@H](O)CN(CC(C)C)S(=O)(=O)c1ccc2nc(NC(=O)C3CC(=O)N(Cc4ccco4)C3)sc2c1 (stereo partly drawn) [Compound 114]	20.4	33.9	141			
CC(C)CN(C[C@@H](O)[C@H](Cc1ccccc1)NC(=O)OCc1cncs1)S(=O)(=O)c1ccc2nc(NC(=O)[C@@H]3CCCN3C)sc2c1 [Compound 166]	6.31	21.9	74.1			
Cc1cccc(C)c1OCC(=O)N[C@@H](Cc1ccccc1)[C@H](O)CN(CC(C)C)S(=O)(=O)c1ccc2nc(NCc3ccncc3)sc2c1 [Compound 131]	46.8	832	1050			
CC(C)CN(C[C@@H](O)[C@H](Cc1ccccc1)NC(=O)OCc1cncs1)S(=O)(=O)c1ccc2nc(NC(=O)c3cccnc3)sc2c1 [Compound 163]	11.5	49	214			
CC(C)COC(=O)Nc1nc2ccc(S(=O)(=O)N(CC(C)C)C[C@@H](O)[C@H](Cc3ccccc3)NC(=O)OCc3cncs3)cc2s1 [Compound 171]	51.3	186	851			
CC(C)CN(C[C@@H](O)[C@H](Cc1ccccc1)NC(=O)O[C@H]1CO[C@H]2OCC[C@H]21)S(=O)(=O)c1ccc2nc(N3CCN(C)CC3)sc2c1 [Compound 107]	2	158	661			
CC(C)CN(C[C@@H](O)[C@H](Cc1ccccc1)NC(=O)O[C@H]1CO[C@H]2OCC[C@H]21)S(=O)(=O)c1ccc2nc(N(C)CCCN3CCCC3)sc2c1 [Compound 108]	24.5	288	813			
CC(=O)Nc1nc2ccc(S(=O)(=O)N(CC(C)C)C[C@@H](O)[C@H](Cc3ccccc3)NC(=O)OCc3cncs3)cc2s1 [Compound 169]	8.51	6.76	35.5			
Cc1cccc(C)c1OCC(=O)N[C@@H](Cc1ccccc1)[C@H](O)CN(CC(C)C)S(=O)(=O)c1ccc2nc(NC(=O)c3cccc(O)c3C)sc2c1 [Compound 117]	47.9	35.5	191			
